According to patent US20250017914A1, “6-AZA-QUINOLINE DERIVATIVES AND RELATED USES” (Black Diamond Therapeutics, Inc., priority 2021, published 2025):

Biological target: T1, BaF3 BRAF-KIAA1549 fusion cells (Homo sapiens, UniProt P15056)
T1 construct: The BRAF-KIAA1549 fusion mutant was subcloned into pMXs-IRES-Blasticidin (RTV-016, Cell Biolabs, San Diego, CA); No tag given; Q9HCM3 (UPF0606 protein KIAA1549)
Experiment: BaF3 BRAF-KIAA1549 fusion cell proliferation assay (CellTiterGlo, 96 hours)
Type: cell-based
Method: Retroviral Production: The BRAF-KIAA1549 fusion mutant was subcloned into pMXs-IRES-Blasticidin (RTV-016, Cell Biolabs, San Diego, CA). Retrovirus was produced by transfection of HEK 293T cells with the retroviral BRAF mutant expression vector pMXs-IRES-Blasticidin (RTV-016, Cell Biolabs), pCMV-Gag-Pol vector and pCMV-VSV-G-Envelope vector. Briefly, HEK 293T cells were plated in Poly-D-lysine coated 6-well plate (2.5×10^5 cells per well) and incubated overnight. The next day, retroviral plasmids (1 μg of BRAF-KIAA fusion mutant, 0.32 μg of pCMV-Gag-Pol and 0.165 μg pCMV-VSV-G) were mixed in 300 μL of Optimem (31985, Life Technologies). The mixture was incubated at room temperature for 5 minutes and then added to Optimem containing transfection reagent Lipofectamine (11668, Invitrogen) and incubated for 20 minutes. The mixture was then added dropwise to HEK 293T cells. The next day the medium was replaced with fresh culture medium and retrovirus was harvested at 24 hours.
Generation of BRAF-KIAA1549 fusion stable cell line: BaF3 cells were plated in V-bottom 96 well plate (COSTAR #3894) in 80 μL of RPMI/10% FBS and 0.01 ng/mL mouse IL-3, supplemented with 8 μg/mL polybrene (4×10^4 cells/well). Cells were transduced with 20 μL of BRAF-KIAA1549 fusion viral supernatant by centrifuging for 30 minutes at 1000 rpm. Cells were placed in a 37° C. incubator overnight. Next day 100 μL of RPMI/10% FBS and 0.01 ng/mL mouse IL-3 was added. After 24 hours, 100 μL of cells were transferred to a 24 well plate containing 900 μL of RPM/10% FBS and 15 μg/mL Blasticidin. Contents of the 24 well plate were sampled for cell viability via CellTiterGlo (Promega) over a 2-week period.
Assay for cell proliferation: BaF3 BRAF-KIAA1549 fusion cells were resuspended at 1.5×10^5 c/mL in RPMI containing 10% Heat Inactivated FBS, 1% L-glutamine and dispensed in duplicate (7×10^4 c/well) into 384 well plates. To determine the effect of compound on cell proliferation, BaF3 BRAF-KIAA1549 fusion cells were incubated for 96 hours in the presence of vehicle control (DMSO) or compound at varying concentrations. Inhibition of cell growth was determined by luminescent quantification (Envision by Perkin Elmer) of intracellular ATP content using CellTiterGlo (Promega), according to the protocol provided by the manufacturer. To determine the IC50 values, the vehicle-treated cells were normalized as viable cells and analyzed using the CDD Vault, Collaborative Drug Discovery, Burlingame, CA (the Levenberg-Marquardt algorithm; Levenberg, K., […]; Marquardt, D., 1963).
Tables A1 and A2 assign each compound a code for potency in the BaF3 BRAF-KIAA1549 fusion cell proliferation assay: A, B, C, or D. According to the code, A represents an IC50 value <20 nM; B represents an IC50 value ≥20 nM and <100 nM; C represents an IC50 value ≥100 nM and <500 nM; and D represents an IC50 value ≥500 nM.

T1 sequence (P15056 whole entry, change not shown, the tested form may be a part): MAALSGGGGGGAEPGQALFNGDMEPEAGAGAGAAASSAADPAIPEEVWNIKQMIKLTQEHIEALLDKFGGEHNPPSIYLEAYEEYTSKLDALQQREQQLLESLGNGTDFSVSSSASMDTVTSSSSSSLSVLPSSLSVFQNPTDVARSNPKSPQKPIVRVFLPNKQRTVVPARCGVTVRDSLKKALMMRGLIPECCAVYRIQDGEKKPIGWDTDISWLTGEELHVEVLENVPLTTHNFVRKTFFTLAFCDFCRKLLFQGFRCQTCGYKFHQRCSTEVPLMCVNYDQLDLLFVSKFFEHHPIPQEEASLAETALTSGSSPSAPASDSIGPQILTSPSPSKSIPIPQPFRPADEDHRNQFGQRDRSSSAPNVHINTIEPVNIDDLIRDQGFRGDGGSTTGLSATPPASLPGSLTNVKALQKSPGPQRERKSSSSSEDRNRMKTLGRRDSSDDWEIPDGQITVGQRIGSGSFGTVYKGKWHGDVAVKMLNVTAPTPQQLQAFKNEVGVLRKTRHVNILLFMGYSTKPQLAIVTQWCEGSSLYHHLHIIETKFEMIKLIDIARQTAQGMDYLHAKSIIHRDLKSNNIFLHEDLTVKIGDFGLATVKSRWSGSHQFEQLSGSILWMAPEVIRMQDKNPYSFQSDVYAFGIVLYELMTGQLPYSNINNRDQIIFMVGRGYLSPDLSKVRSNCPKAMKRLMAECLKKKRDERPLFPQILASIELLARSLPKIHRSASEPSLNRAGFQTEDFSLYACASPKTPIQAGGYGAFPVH

GI50 (Table A2) | GI50 (Table A1) | Structure (SMILES)
20 to 100 nM |  | CNc1cc2ncc(-c3cc(NC(=O)c4noc5c4CCCCC5)cnc3C)cc2cn1 [Compound 245, N-(6-methyl-5-(7-(methylamino)-1,6-naphthyridin-3-yl)pyridin-3-yl)-5,6,7,8-tetrahydro-4H-cyclohepta[d]isoxazole-3-carboxamide]
20 to 100 nM |  | CNc1cc2ncc(-c3cc(NC(=O)c4csc5c4CCC(C)C5)cnc3C)cc2cn1 (stereo not shown) [Compound 235, 6-methyl-N-(6-methyl-5-(7-(methylamino)-1,6-naphthyridin-3-yl)pyridin-3-yl)-4,5,6,7-tetrahydrobenzo[b]thiophene-3-carboxamide]
20 to 100 nM |  | CNc1cc2ncc(-c3cc(NC(=O)c4ccnc(C(C)(C)C#N)c4)c(F)cc3C)cc2cn1 [Compound 217, 2-(2-cyanopropan-2-yl)-N-(2-fluoro-4-methyl-5-(7-(methylamino)-1,6-naphthyridin-3-yl)phenyl)isonicotinamide]
 | 20 to 100 nM | CNc1cc2ncc(-c3cc(NC(=O)c4cc(C(F)(F)F)c(OCCO)cn4)ccc3C)cc2cn1 [Compound 71, 5-(2-hydroxyethoxy)-N-(4-methyl-3-(7-(methylamino)-1,6-naphthyridin-3-yl)phenyl)-4-(trifluoromethyl)picolinamide]
 | 20 to 100 nM | CNc1cc2ncc(-c3cc(C(=O)Nc4cc(C(C)(C)C#N)ccn4)ccc3C)cc2cn1 [Compound 53, N-(4-(2-cyanopropan-2-yl)pyridin-2-yl)-4-methyl-3-(7-(methylamino)-1,6-naphthyridin-3-yl)benzamide]
< 20 nM |  | CNc1cc2ncc(-c3cc(NC(=O)c4n[nH]c5c4CC(C)CC5)ccc3C)cc2cn1 (stereo not shown) [Compound 261, 5-methyl-N-(4-methyl-3-(7-(methylamino)-1,6-naphthyridin-3-yl)phenyl)-4,5,6,7-tetrahydro-1H-indazole-3-carboxamide]
20 to 100 nM |  | CNc1cc2ncc(-c3cc(NC(=O)c4nccc(C(C)C)c4Cl)cnc3C)cc2cn1 [Compound 256, 3-chloro-4-isopropyl-N-(6-methyl-5-(7-(methylamino)-1,6-naphthyridin-3-yl)pyridin-3-yl)picolinamide]
 | 20 to 100 nM | CNc1cc2ncc(-c3cc(NC(=O)c4cc(C(F)(F)F)c(C)cn4)ccc3C)cc2cn1 [Compound 5, 5-Methyl-N-(4-methyl-3-(7-(methylamino)-1,6-naphthyridin-3-yl)phenyl)-4-(trifluoromethyl)picolinamide]
< 20 nM |  | CNc1cc2ncc(-c3cc(NC(=O)c4c[nH]c5ccc(C)cc45)ccc3C)cc2cn1 [Compound 263, 5-methyl-N-(4-methyl-3-(7-(methylamino)-1,6-naphthyridin-3-yl)phenyl)-1H-indole-3-carboxamide]
20 to 100 nM |  | CNc1cc2ncc(-c3cc(NC(=O)c4c[nH]c5c4CC(C)CC5)ccc3C)cc2cn1 (stereo not shown) [Compound 266, 5-methyl-N-(4-methyl-3-(7-(methylamino)-1,6-naphthyridin-3-yl)phenyl)-4,5,6,7-tetrahydro-1H-indole-3-carboxamide]
20 to 100 nM |  | Cc1ccc(NC(=O)c2cc(C(C)(C)C#N)ccn2)cc1-c1ccc2c3c(ncc2c1)NC(=O)C3 [Compound 275, 4-(2-cyanopropan-2-yl)-N-(4-methyl-3-(2-oxo-2,3-dihydro-1H-pyrrolo[2,3-c]isoquinolin-7-yl)phenyl)picolinamide]

Further lines, the compound ahead of its results:

Structure (SMILES) | GI50 (Table A2) | GI50 (Table A1)
CNc1cc2ncc(-c3cc(F)cc(NC(=O)c4cc(C(C)(C)C#N)ccn4)c3)cc2cn1 [Compound 47, 4-(2-Cyanopropan-2-yl)-N-(3-fluoro-5-(7-(methylamino)-1,6-naphthyridin-3-yl)phenyl)picolinamide] |  | 100 to 500 nM
CNc1cc2ncc(-c3cc(NC(=O)c4cc(C(O)C5CC5)ccn4)cnc3C)cc2cn1 (stereo not shown) [Compound 201, 4-(cyclopropyl(hydroxy)methyl)-N-(6-methyl-5-(7-(methylamino)-1,6-naphthyridin-3-yl)pyridin-3-yl)picolinamide] | 20 to 100 nM | 
CNc1cc2ncc(-c3cc(NC(=O)c4cc(C(O)(O)C(F)(F)F)ccn4)cnc3C)cc2cn1 [Compound 206, N-(6-methyl-5-(7-(methylamino)-1,6-naphthyridin-3-yl)pyridin-3-yl)-4-(2,2,2-trifluoro-1,1-dihydroxyethyl)picolinamide] | 20 to 100 nM | 
CNc1cc2ncc(-c3cc(NC(=O)c4cccc(C(O)C(F)(F)F)n4)cnc3C)cc2cn1 (stereo not shown) [Compound 210, N-(6-methyl-5-(7-(methylamino)-1,6-naphthyridin-3-yl)pyridin-3-yl)-6-(2,2,2-trifluoro-1-hydroxyethyl)picolinamide] | ≥ 500 nM | 
CNc1cc2ncc(-c3cc(NC(=O)c4cnc5n4C(C)CCC5)ccc3C)cc2cn1 (stereo not shown) [Compound 205, 5-methyl-N-(4-methyl-3-(7-(methylamino)-1,6-naphthyridin-3-yl)phenyl)-5,6,7,8-tetrahydroimidazo[1,2-a]pyridine-3-carboxamide] | 100 to 500 nM | 
CNc1cc2ncc(-c3cc(NC(=O)c4noc5c4CC(C)(C)CC5)cnc3C)cc2cn1 [Compound 257, 5,5-dimethyl-N-(6-methyl-5-(7-(methylamino)-1,6-naphthyridin-3-yl)pyridin-3-yl)-4,5,6,7-tetrahydrobenzo[d]isoxazole-3-carboxamide] | 20 to 100 nM | 
Cc1ccc(NC(=O)c2ccnc(C3(F)CC3)c2)cc1-c1cnc2cc(N)ncc2c1 [Compound 154, N-(3-(7-amino-1,6-naphthyridin-3-yl)-4-methylphenyl)-2-(1-fluorocyclopropyl)isonicotinamide] |  | < 20 nM
CNc1cc2ncc(-c3cc(NC(=O)c4cc(C(F)(F)F)ccn4)c(F)cc3C)cc2cn1 [Compound 224, N-(2-fluoro-4-methyl-5-(7-(methylamino)-1,6-naphthyridin-3-yl)phenyl)-4-(trifluoromethyl)picolinamide] | 100 to 500 nM | 
CNc1cc2ncc(-c3cc(NC(=O)c4ccnc(C5(F)CC5)c4)ccc3C)cc2cn1 [Compound 18, 2-(1-Fluorocyclopropyl)-N-(4-methyl-3-(7-(methylamino)-1,6-naphthyridin-3-yl)phenyl)isonicotinamide] |  | < 20 nM
CNc1cc2ncc(-c3cc(NC(=O)c4cc(C(F)F)c(F)cn4)cnc3C)cc2cn1 [Compound 66, 4-(Difluoromethyl)-5-fluoro-N-(6-methyl-5-(7-(methylamino)-1,6-naphthyridin-3-yl)pyridin-3-yl)picolinamide] |  | 20 to 100 nM
CNc1cc2ncc(-c3cc(NC(=O)c4cccc(C(C)(F)F)c4)cnc3C)cc2cn1 [Compound 200, 3-(1,1-difluoroethyl)-N-(6-methyl-5-(7-(methylamino)-1,6-naphthyridin-3-yl)pyridin-3-yl)benzamide] | < 20 nM | 
CNc1cc2ncc(-c3cc(NC(=O)c4noc5c4C[C@H](C)CC5)ccc3C)cc2cn1 (single isomer, unassigned) [Compound 237] | 20 to 100 nM | 
CNc1cc2ncc(-c3cc(NC(=O)c4cccc(N(C)C)c4)cnc3C)cc2cn1 [Compound 19, 3-(Dimethylamino)-N-(6-methyl-5-(7-(methylamino)-1,6-naphthyridin-3-yl)pyridin-3-yl)benzamide] |  | < 20 nM
CNc1cc2ncc(-c3cc(NC(=O)CN4CCC[C@H](C(F)(F)F)C4)cnc3C)cc2cn1 [Compound 62, (S)—N-(6-Methyl-5-(7-(methylamino)-1,6-naphthyridin-3-yl)pyridin-3-yl)-2-(3-(trifluoromethyl)piperidin-1-yl)acetamide] |  | 20 to 100 nM
